Key:
poria placenta = experiment: EN113 test after EN84 washing, pine timber, poria placenta; assay type: cell-based
Method: (§1) Timber pieces were positioned in a treating vessel. Over a period of 30 minutes a pressure of 0.1 bar was applied. The treating solution containing a Product was sucked into the vessel. Then the pressure in the vessel was increased to 10 bar at 25° C. for 90 minutes. Afterwards the pressure was set to ambient pressure and the remainder of the treating solution was removed. The impregnated timber pieces were dried at ambient temperature.
(§2) In both tables 13 and 14 the standard applied is EN113. Prior to EN113, the timber was washed according to EN84. The type of timber used was pine.
(§3) Tables 13 and 14 show the average retention of the active ingredient (AI) in Product C when it is exposed to both “poria placenta” (table 13) and “coniophora puteana” (table 14). Comparisons are also made with retention values of DPAB and the azol (triadimefon) in the timber. Average AI retention values are required in order to pass the EN113 Standard.
(§4) In both tables 15 and 16 the standard applied is EN113. Prior to EN113, the timber was washed according to EN84. The type of timber used was pine.
(§5) As for product C, tables 15 and 16 show the average retention of the active ingredient (AI) in Product D when it is exposed to both “poria placenta” (table 15) and “coniophora puteana” (table 16). Comparisons are also made with retention values of DPAB and the azol (cyproconazol) in the timber. […]

coniophora puteana = experiment: EN113 test after EN84 washing, pine timber, coniophora puteana; assay type: cell-based
Method: as §1, §2, §3, §4, §5

## di-decyl-poly-oxethyl-ammoninum borate [DPAB TGAI]
Poria placenta; poria placenta (Table 13)
  Average DPAB retention in timber: 4.50 kg/m^3
Poria placenta; poria placenta (Table 15)
  Average DPAB retention in timber: 4.50 kg/m^3
Coniophora puteana; coniophora puteana (Table 14)
  Average DPAB retention in timber: 7.40 kg/m^3
Coniophora puteana; coniophora puteana (Table 16)
  Average DPAB retention in timber: 7.40 kg/m^3
